Active and inactive are the calls of the source. The rule behind the calls is not given here.
Assays:
P388 = experiment: Cytotoxicity against mouse P388 cells; assay type: functional, cell-based
Candida albicans = experiment: Antifungal activity against Candida albicans; assay type: functional, organism-based

Q: With C=C1CC[C@H](C(C)C)[C@@H]2[C@H]1[C@H]1C[C@](C)(O)[C@@H](OCC)CC[C@@](C)(O)[C@@H]2O1 as the molecule, how does the Activity (P388) read?
A: inactive

Q: And the Activity (Candida albicans)?
A: inactive
